Results: patent US9598446B2, “Amino compounds for treatment of complement mediated disorders” (priority 2014, dated 2017)

Target: Human factor D (Homo sapiens (Human), UniProt P00746)
Test: Human Factor D Assay
Assay type: biochemical
Conditions: not given

Sequence of Human factor D (P00746 26-253): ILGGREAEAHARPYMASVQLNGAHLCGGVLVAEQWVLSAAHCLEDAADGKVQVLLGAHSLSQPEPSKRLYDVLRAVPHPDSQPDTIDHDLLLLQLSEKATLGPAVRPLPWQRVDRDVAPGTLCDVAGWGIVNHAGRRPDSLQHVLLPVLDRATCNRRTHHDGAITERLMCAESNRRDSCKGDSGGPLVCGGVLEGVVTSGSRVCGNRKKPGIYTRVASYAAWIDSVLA

| Compound | IC50 [nM] |
| --- | --- |
| CC(=O)c1cn(CC(=O)N2C[C@H](F)C[C@H]2C(=O)Nc2ccccc2-n2nccc2C)c2ccc(Nc3cncnc3)cc12 [Compound 30, (2S,4R)-1-(2-(3-acetyl-5-(pyrimidin-5-ylamino)-1H-indol-1-yl)acetyl)-4-fluoro-N-(2-(5-methyl-1H-pyrazol-1-yl)phenyl)pyrrolidine-2-carboxamide] | 1000 to 10000 |
| COc1cc(C)cc2c1OCCC2NC(=O)[C@@H]1C[C@@H](F)CN1C(=O)Cn1cc(C(C)=O)c2cc(Nc3cncnc3)ccc21 (stereo partly drawn) [Compound 54, (2S,4R)-1-(2-(3-acetyl-5-(pyrimidin-5-ylamino)-1H-indol-1-yl)acetyl)-4-fluoro-N-(8-methoxy-6-methylchroman-4-yl)pyrrolidine-2-carboxamide] | 1000 to 10000 |
| CC(=O)c1cn(CC(=O)N2C[C@H](F)C[C@H]2C(=O)Nc2ccccc2N2CCOC2=O)c2ccc(Nc3cncnc3)cc12 [Compound 40, (2S,4R)-1-(2-(3-acetyl-5-(pyrimidin-5-ylamino)-1H-indol-1-yl)acetyl)-4-fluoro-N-(2-(2-oxooxazolidin-3-yl)phenyl)pyrrolidine-2-carboxamide] | 1000 to 10000 |
| CNC(=O)[C@@H]1C[C@@H](F)CN1C(=O)Cn1cc(C(C)=O)c2cc(Nc3cncnc3)ccc21 [Compound 20, (2S,4R)-1-(2-(3-acetyl-5-(pyrimidin-5-ylamino)-1H-indol-1-yl)acetyl)-4-fluoro-N-methylpyrrolidine-2-carboxamide] | 1000 to 10000 |
| CC(=O)c1cn(CC(=O)N2C[C@H](F)C[C@H]2C(=O)NCc2cccc(Cl)c2F)c2cc(N(CC(=O)N3C[C@H](F)C[C@H]3C(=O)NCc3cccc(Cl)c3F)S(C)(=O)=O)ccc12 [Compound 1, (2S,4R)-1-(2-(N-(3-acetyl-1-(2-((2S,4R)-2-(3-chloro-2-fluorobenzyl-carbamoyl)-4-fluoropyrrolidin-1-yl)-2-oxoethyl)-1H-indol-6-yl)methylsulfonamido)acetyl)-N-(3-chloro-2-fluorobenzyl)-4-fluoropyrrolidine-2-carboxamide] | 1000 to 10000 |

Same assay, conditions: human factor D 80 nM, substrate Z-L-Lys-SBz1 and DTNB 100 μM each, pH 7.5; read-out: IC50

| Compound | IC50 [nM] |
| --- | --- |
| CC(=O)c1cn(CC(=O)N2C[C@H](F)C[C@H]2C(=O)Nc2ccc(F)c(-c3nnc4n3CCCCC4)c2)c2ccc(Nc3cncnc3)cc12 [Compound 26, (2S,4R)-1-(2-(3-acetyl-5-(pyrimidin-5-ylamino)-1H-indol-1-yl)acetyl)-4-fluoro-N-(4-fluoro-3-(6,7,8,9-tetrahydro-5H-[1,2,4]triazolo[4,3-a]azepin-3-yl)phenyl)pyrrolidine-2-carboxamide] | < 1000 |
| CC(=O)c1cn(CC(=O)N2C[C@H](F)C[C@H]2C(=O)Nc2ccc3ncsc3c2)c2ccc(Nc3cncnc3)cc12 [Compound 56, (2S,4R)-1-(2-(3-acetyl-5-(pyrimidin-5-ylamino)-1H-indol-1-yl)acetyl)-N-(benzo[d]thiazol-6-yl)-4-fluoropyrrolidine-2-carboxamide] | < 1000 |
| CC(=O)c1cn(CC(=O)N2C[C@H](F)C[C@H]2C(=O)NC2CCCN(c3ccccc3Cl)C2=O)c2ccc(Nc3cncnc3)cc12 (stereo partly drawn) [Compound 58, (2S,4R)-1-(2-(3-acetyl-5-(pyrimidin-5-ylamino)-1H-indol-1-yl)acetyl)-N-(1-(2-chlorophenyl)-2-oxopiperidin-3-yl)-4-fluoropyrrolidine-2-carboxamide] | < 1000 |
| CC(=O)c1cn(CC(=O)N2C[C@H](F)C[C@H]2C(=O)Nc2cncc(Br)c2)c2ccc(Nc3cncnc3)cc12 [Compound 21, (2S,4R)-1-(2-(3-acetyl-5-(pyrimidin-5-ylamino)-1H-indol-1-yl)acetyl)-N-(5-bromopyridin-3-yl)-4-fluoropyrrolidine-2-carboxamide] | < 1000 |
| CC(=O)c1cn(CC(=O)N2C[C@H](F)C[C@H]2C(=O)NCc2ccccn2)c2ccc(Nc3cncnc3)cc12 [Compound 17, (2S,4R)-1-(2-(3-acetyl-5-(pyrimidin-5-ylamino)-1H-indol-1-yl)acetyl)-4-fluoro-N-(pyridin-2-ylmethyl)pyrrolidine-2-carboxamide] | < 1000 |
| NC(=O)c1nn(CC(=O)N2C[C@H](F)C[C@H]2C(=O)Nc2cccc(Cl)n2)c2ccc(Nc3cccnn3)cc12 [Compound 11, 1-(2-((2S,4R)-2-(6-chloropyridin-2-ylcarbamoyl)-4-fluoropyrrolidin-1-yl)-2-oxoethyl)-5-(pyridazin-3-ylamino)-1H-indazole-3-carboxamide] | < 1000 |
| CC(=O)c1cn(CC(=O)N2C[C@H](F)C[C@H]2C(=O)NCc2cccnc2)c2ccc(Nc3cncnc3)cc12 [Compound 43, (2S,4R)-1-(2-(3-acetyl-5-(pyrimidin-5-ylamino)-1H-indol-1-yl)acetyl)-4-fluoro-N-(pyridin-3-ylmethyl)pyrrolidine-2-carboxamide] | < 1000 |
| CC(=O)c1cn(CC(=O)N2C[C@H](F)C[C@H]2C(=O)Nc2ccc3cn[nH]c3c2)c2ccc(Nc3cncnc3)cc12 [Compound 25, (2S,4R)-1-(2-(3-acetyl-5-(pyrimidin-5-ylamino)-1H-indol-1-yl)acetyl)-4-fluoro-N-(1H-indazol-6-yl)pyrrolidine-2-carboxamide] | < 1000 |
| CC(=O)c1cn(CC(=O)N2C[C@H](F)C[C@H]2C(=O)Nc2ccc(OCc3ccccc3)cn2)c2ccc(Nc3cncnc3)cc12 [Compound 45, (2S,4R)-1-(2-(3-acetyl-5-(pyrimidin-5-ylamino)-1H-indol-1-yl)acetyl)-N-(5-(benzyloxy)pyridin-2-yl)-4-fluoropyrrolidine-2-carboxamide] | < 1000 |
| CC(=O)c1cn(CC(=O)N2C[C@H](F)C[C@H]2C(=O)Nc2nc(-c3ccc4c(c3)CCCC4)cs2)c2ccc(Nc3cncnc3)cc12 [Compound 50, (2S,4R)-1-(2-(3-acetyl-5-(pyrimidin-5-ylamino)-1H-indol-1-yl)acetyl)-4-fluoro-N-(4-(5,6,7,8-tetrahydronaphthalen-2-yl)thiazol-2-yl)pyrrolidine-2-carboxamide] | > 10000 |
| CC(=O)c1cn(CC(=O)N2C[C@H](F)C[C@H]2C(=O)Nc2cccc(-c3ccccc3Cl)c2F)c2ccc(Nc3cncnc3)cc12 [Compound 3, (2S,4R)-1-(2-(3-acetyl-5-(pyrimidin-5-ylamino)-1H-indol-1-yl)acetyl)-N-(2′-chloro-2-fluorobiphenyl-3-yl)-4-fluoropyrrolidine-2-carboxamide] | < 1000 |
| CC(=O)c1cn(CC(=O)N2C[C@H](F)C[C@H]2C(=O)Nc2cccc(Cl)c2C(F)(F)F)c2ccc(Nc3cncnc3)cc12 [Compound 48, (2S,4R)-1-(2-(3-acetyl-5-(pyrimidin-5-ylamino)-1H-indol-1-yl)acetyl)-N-(3-chloro-2-(trifluoromethyl)-phenyl)-4-fluoropyrrolidine-2-carboxamide] | < 1000 |
| NC(=O)c1nn(CC(=O)N2C[C@H](F)C[C@H]2C(=O)Nc2cccc(-c3ccccc3Cl)c2F)c2ccc(Nc3cnc(C(F)(F)F)nc3)cc12 [Compound 14, 1-(2-((2S,4R)-2-(2′-chloro-2-fluorobiphenyl-3-ylcarbamoyl)-4-fluoropyrrolidin-1-yl)-2-oxoethyl)-5-(2-(trifluoromethyl)pyrimidin-5-ylamino)-1H-indazole-3-carboxamide] | < 1000 |
| CC(=O)c1cn(CC(=O)N2C[C@H](F)C[C@H]2C(=O)Nc2cc(C)nc3nc(C(F)(F)F)nn23)c2ccc(Nc3cncnc3)cc12 [Compound 41, (2S,4R)-1-(2-(3-acetyl-5-(pyrimidin-5-ylamino)-1H-indol-1-yl)acetyl)-4-fluoro-N-(5-methyl-2-(trifluoromethyl)-[1,2,4]triazolo[1,5-a]pyrimidin-7-yl)pyrrolidine-2-carboxamide] | > 10000 |
| CC(=O)c1cn(CC(=O)N2C[C@H](F)C[C@H]2C(=O)Nc2cccc(Cl)n2)c2ccc(Nc3cncnc3)cc12 [Compound 6, (2S,4R)-1-(2-(3-acetyl-5-(pyrimidin-5-ylamino)-1H-indol-1-yl)acetyl)-N-(6-chloropyridin-2-yl)-4-fluoropyrrolidine-2-carboxamide] | < 1000 |
| CC(=O)c1cn(CC(=O)N2C[C@H](F)C[C@H]2C(=O)Nc2cccc(O)n2)c2ccc(Nc3cncnc3)cc12 [Compound 68, (2S,4R)-1-(2-(3-acetyl-5-(pyrimidin-5-ylamino)-1H-indol-1-yl)acetyl)-4-fluoro-N-(6-hydroxypyridin-2-yl)pyrrolidine-2-carboxamide] | < 1000 |
| CC(=O)c1cn(CC(=O)N2C[C@H](F)C[C@H]2C(=O)NCc2ccncc2)c2ccc(Nc3cncnc3)cc12 [Compound 59, (2S,4R)-1-(2-(3-acetyl-5-(pyrimidin-5-ylamino)-1H-indol-1-yl)acetyl)-4-fluoro-N-(pyridin-4-ylmethyl)pyrrolidine-2-carboxamide] | < 1000 |
| CC(=O)c1cn(CC(=O)N2C[C@H](F)C[C@H]2C(=O)Nc2cncc(Cl)n2)c2ccc(Nc3cncnc3)cc12 [Compound 33, (2S,4R)-1-(2-(3-acetyl-5-(pyrimidin-5-ylamino)-1H-indol-1-yl)acetyl)-N-(6-chloropyrazin-2-yl)-4-fluoropyrrolidine-2-carboxamide] | < 1000 |
| CCN1Cc2ccc(NC(=O)[C@@H]3C[C@@H](F)CN3C(=O)Cn3cc(C(C)=O)c4cc(Nc5cncnc5)ccc43)cc2C1=O [Compound 23, (2S,4R)-1-(2-(3-acetyl-5-(pyrimidin-5-ylamino)-1H-indol-1-yl)acetyl)-N-(2-ethyl-3-oxoisoindolin-5-yl)-4-fluoropyrrolidine-2-carboxamide] | < 1000 |
| CC(=O)c1cn(CC(=O)N2C[C@H](F)C[C@H]2C(=O)Nc2cncc(Br)n2)c2ccc(Nc3cncnc3)cc12 [Compound 47, (2S,4R)-1-(2-(3-acetyl-5-(pyrimidin-5-ylamino)-1H-indol-1-yl)acetyl)-N-(6-bromopyrazin-2-yl)-4-fluoropyrrolidine-2-carboxamide] | < 1000 |
| CC(=O)c1cn(CC(=O)N2C[C@H](F)C[C@H]2C(=O)NCc2cccc(Cl)c2)c2ccc(Nc3cncnc3)cc12 [Compound 19, (2S,4R)-1-(2-(3-acetyl-5-(pyrimidin-5-ylamino)-1H-indol-1-yl)acetyl)-N-(3-chlorobenzyl)-4-fluoropyrrolidine-2-carboxamide] | < 1000 |
